This is an account of results in PubChem BioAssay AID1996.

≈ marks a conversion by molar mass, not a printed value.

For this data set the following is noted: buffer; pH 7.4; 200.0 µM.
In the case of `CC(=O)N1CCC2(CC1)NC(=O)N(c1ccccc1)N2`, the solubility (kinetic) (commonly solubility judged after dilution from a stock solution rather than from solid) is over 41.1 µg/mL.
In the case of `Cc1ccc(OCCn2c(=S)[nH]c3ccccc32)c(C(C)C)c1`, the solubility (kinetic) is under 0.3 µg/mL.
To `COc1ccc(C(=O)NC(=O)COC(=O)c2ccc(C)o2)cc1` belongs 7 µg/mL (≈ 22.1 µM); to `CCN(CC)c1ccc(N2C(=O)/C(=C/c3ccccn3)SC2=S)cc1`, under 0.3 µg/mL; to `CN[C@H](CC(=O)O)C(=O)O`, over 22.1 µg/mL.
Next, `CCc1ccccc1NC(=O)COC(=O)c1c(C)nsc1NC`: 1.9 µg/mL (≈ 5.7 µM); `O=C(CSc1nnc2ccccn12)NC(=O)c1cccc([N+](=O)[O-])c1`: over 53.6 µg/mL; `CCN(CC)c1cc(C)c(C#N)c2nc3ccccc3n12`: 2 µg/mL (≈ 7.18 µM).
To `CCN(c1ccc(NC(=O)COC(=O)/C=C/c2ccco2)cc1)C(C)C` belongs 24.5 µg/mL (≈ 68.7 µM); to `CCCCn1c(CCC(=O)O)nc2cc(S(=O)(=O)N3CCCC3)ccc21`, over 56.9 µg/mL.
As for `N/C(Cc1ccc([N+](=O)[O-])cc1)=N\OC(=O)c1ccco1`, the solubility (kinetic) worked out at 18 µg/mL (≈ 62.2 µM).
For `COc1ccccc1CNC(=O)COC(=O)/C=C/c1ccc2ccccc2n1`, the kinetic solubility was 9.8 µg/mL (≈ 26 µM).
Next, `Cc1ccc(N2C(=O)CSC2c2cccnc2)c(Cl)c1` (stereo not drawn): over 45.7 µg/mL; `Cc1cccc(NC(=O)CN(CCc2ccccc2)S(C)(=O)=O)c1`: over 52 µg/mL; `O=C(Cc1cccc(C(F)(F)F)c1)NCc1cccnc1`: over 44.1 µg/mL.
Next, `Cc1ccc(-c2c[n+](Cc3ccc(Cl)cc3)c3n2CCC3)cc1.[Cl-]`: over 53.9 µg/mL; `COc1ccc(C(=O)CSc2cc(C)[nH]c(=O)n2)cc1`: 23.7 µg/mL (≈ 81.6 µM); `Nc1nc2nonc2nc1N`: over 22.8 µg/mL.
As for `N#Cc1cccc(C#N)c1Oc1ccc(N)cc1`, the solubility (kinetic) is over 35.3 µg/mL.
Take `COc1cccc(CNS(=O)(=O)c2csc(C(N)=O)c2)c1`: the solubility (kinetic) is over 49 µg/mL.
To `O=C1COc2ccc(C(=O)COC(=O)c3ccc(F)cc3Cl)cc2N1` belongs 5.3 µg/mL (≈ 14.6 µM); to `CCN1C(=O)c2cccc3c(S(=O)(=O)Nc4ccccc4O)ccc1c23`, 0.5 µg/mL (≈ 1.36 µM); to `Cc1ncsc1C(=O)Nc1cccc(C(F)(F)F)c1`, 40.7 µg/mL (≈ 142 µM).
Turning to `CC(Oc1ccc(Br)cc1Br)C(=O)Nc1cccnc1` (stereo not drawn), the kinetic solubility came out at 7.2 µg/mL (≈ 18 µM).
`Cc1ccc(NC(=S)NCc2ccc3c(c2)cc(C)n3C)c(C)c1` returned a kinetic solubility of 0.6 µg/mL (≈ 1.78 µM).
`Cc1ccc(OCc2ccc(C(=O)Nc3cc(C)on3)o2)c([N+](=O)[O-])c1` had a kinetic solubility of 1.4 µg/mL (≈ 3.92 µM).
Next, `CC(=O)NC(C)(CC(=O)c1ccccc1)c1ccccc1` (stereo not drawn): over 42.2 µg/mL; `Cc1c2c(nc3ccccc13)CC(C)(C)CC2=O.Cl`: 36.8 µg/mL; `O=C(COC(=O)COc1cccc(F)c1)NCC1CCCCC1`: over 48.5 µg/mL.
To `CSCc1ccc(C(=O)NC(C)c2ccc(-n3ccnc3)cc2)cc1` (stereo not drawn) belongs 42.1 µg/mL (≈ 120 µM); to `Fc1ccccc1NC(=S)NCc1ccccc1`, 36.1 µg/mL (≈ 139 µM); to `Cc1cccc(NC(=O)N2CCC(NC(=O)C3CCCCC3)CC2)c1`, 1.6 µg/mL (≈ 4.66 µM).
To `Cc1cccn2cc(-c3ccc4c(c3)NC(=O)CO4)nc12` belongs 7.9 µg/mL (≈ 28.3 µM).
For the molecule `Nc1no[n+]([O-])c1-c1ccccc1`, the kinetic solubility was found to be 24.2 µg/mL (≈ 137 µM).
To `COc1cccc(C(O)c2cnc(C(C)C)n2C)c1` (stereo not drawn) belongs over 39.1 µg/mL; to `Cc1ccccc1NC(=O)CCN1C(=O)c2ccccc2C1=O`, 15.3 µg/mL (≈ 49.6 µM).
`Cl.OC(c1ccc(Cl)cc1)c1nccc2ccccc12` (stereo not drawn): the kinetic solubility is 31.1 µg/mL.
As to `CCOc1ccc(S(=O)(=O)NCc2ccc3c(c2)OCO3)cc1C`, the solubility (kinetic) came to 24.3 µg/mL (≈ 69.5 µM).
With `COP(=O)(OC)c1nc(-c2ccc(C)cc2)oc1N1CCCCC1`, the solubility (kinetic) was over 52.6 µg/mL.
Regarding `COCCNC(=O)c1ccc2c(Cl)c3c(nc2c1)CCC3`, the kinetic solubility was over 45.7 µg/mL.
Molecule `Cc1cccc(NC(=O)CNC(=O)COC(=O)C2CC2C)c1C` (stereo not drawn) registered a kinetic solubility of over 47.8 µg/mL.
`Cc1ccc(CSC2=Nc3ccccc3C3=NC(=O)CN23)cc1` yielded a solubility (kinetic) of 4.9 µg/mL (≈ 15.2 µM).
As for `O=C(NCCO)c1cc([N+](=O)[O-])cc2c1C=Cc1ccccc1O2`, the kinetic solubility is 35.3 µg/mL (≈ 108 µM).
To `COC(=O)[C@H](C)NC(=O)NCc1ccccc1` belongs over 35.4 µg/mL; to `COCC(=O)Nc1nc(-c2ccc([N+](=O)[O-])cc2)cs1`, 7.3 µg/mL (≈ 24.9 µM); to `CCN(CC(=O)Nc1ccc2c(c1)OCCO2)CC(=O)Nc1ccccc1C(F)(F)F.O=C(O)C(=O)O`, 47.7 µg/mL.
`O=C(Nc1cccnc1Cl)c1cccs1` gave a kinetic solubility of over 35.8 µg/mL.
`CCCC(=O)NC(c1ccc(C(C)C)cc1)c1ccc2cccnc2c1O` (stereo not drawn) had a solubility (kinetic) of under 0.4 µg/mL.
Turning to `Cc1nnc(N(C)C(=O)c2ccc3c(c2)OCO3)s1`, the solubility (kinetic) is over 41.6 µg/mL.
`Cc1noc(C)c1NC(=O)NCCN1CCN(Cc2ccccc2)CC1` gave a kinetic solubility of over 53.6 µg/mL.
The molecule `CSc1cccc(NC(=O)COC(=O)C2(c3ccccc3)CC2)c1` yielded a solubility (kinetic) of 10.7 µg/mL (≈ 31.3 µM).
Next, `Cc1ccc(NC(=O)CCCC2CCCCC2)c(O)c1`: under 0.6 µg/mL.
Next, `CN(Cc1ccc(N(C)C)cc1)C(=O)c1cc2ccccc2o1`: 31.5 µg/mL (≈ 102 µM).
`CC(NC(=O)c1cc(=O)[nH]c2ccccc12)c1ccc(F)cc1F` (stereo not drawn) showed a kinetic solubility of 2.8 µg/mL (≈ 8.53 µM). This solubility kinetic lies about 11-fold lower than the previous one.
To `CC(C)N(CC(N)=O)c1ncnc2sc(-c3ccccc3)cc12` belongs 10.4 µg/mL (≈ 31.9 µM).
`CC12CCC(C(=O)Nc3nc4ccccc4s3)(OC1=O)C2(C)C` (stereo not drawn) had a kinetic solubility of 34.7 µg/mL (≈ 105 µM).
Next, `O=C(NC1(Cc2ccc(O)cc2)CCCCC1)c1ccccc1`: 44.9 µg/mL (≈ 145 µM); `C/C(=N\OCC(=O)Nc1ccccc1C(=O)O)c1cccs1`: over 47.8 µg/mL; `Cc1cccc(Cc2c(C)[nH]c(=O)c(C#N)c2C)c1`: 5.5 µg/mL (≈ 21.8 µM).
To `CNCc1ccccc1Sc1ccc(O)c(O)c1.O=C([O-])/C=C\C(=O)[O-]` belongs 31.5 µg/mL; to `OCC[N+]12CCC(CC1)C(C(O)(c1ccccc1)c1ccccc1)C2` (stereo not drawn), over 50.8 µg/mL.
Next, `CCC(=O)N1CCN(c2ccccc2NC(=O)c2ccc([N+](=O)[O-])o2)CC1`: 32.4 µg/mL (≈ 87 µM); `O=C(CSc1nc(-c2ccccc2)cc(=O)[nH]1)Nc1ccccc1`: 1.3 µg/mL (≈ 3.85 µM); `CN(C)S(=O)(=O)c1cc(NC(=O)COC(=O)CC2CC3CCC2C3)ccc1Cl` (stereo not drawn): 13.7 µg/mL (≈ 31.9 µM).
Molecule `CC(C)CC(=O)N/C(N)=N/c1nc2ccccc2o1` returned a kinetic solubility of 1.3 µg/mL (≈ 4.99 µM).
The molecule `CN(C)C(=O)CN1C(=O)NC2(CCCc3ccccc32)C1=O` (stereo not drawn) gave a kinetic solubility of over 45.2 µg/mL.
`CCC(C)NCCOc1cc(C)cc(C)c1C.O=C(O)C(=O)O` (stereo not drawn) returned a solubility (kinetic) of 35.1 µg/mL.
With `CCCCc1nc2sc3c(=O)[nH]cnc3c2c2c1CCCC2`, the kinetic solubility is under 0.2 µg/mL.
Regarding `CCCCOC(=O)N1CCOCCOCCOCC1`, the solubility (kinetic) is 40.2 µg/mL (≈ 146 µM).
Next, `COc1cc2c(cc1OC)C(=S)NC1(CCCC1)C2`: 5.5 µg/mL (≈ 19.8 µM); `CCOC(=O)/C(=C/Nc1ccc(F)cc1)[N+](=O)[O-]`: 33.9 µg/mL (≈ 133 µM); `Cc1cccc(NC(=O)CCCN2C(=O)C3CC=CCC3C2=O)c1` (stereo not drawn): over 49 µg/mL.
To `CCOc1ccc(NC(=O)CCc2ccc(C)o2)cc1` belongs 10.5 µg/mL (≈ 38.4 µM).
To `COCCCn1c(=O)c2ccccc2n(Cc2ccc(C)cc2)c1=O` belongs 2.1 µg/mL (≈ 6.21 µM); to `O=C(Nc1ccc(COc2ccccc2)cc1)Nc1cccc(C(=O)O)c1`, 12.1 µg/mL (≈ 33.4 µM).
`Cc1ccccc1CC(=O)N1CCCC1`: the kinetic solubility is 29.7 µg/mL (≈ 146 µM).
In turn, `O=C(CN1C(=O)NC2(CCCC2)C1=O)Nc1cc(S(=O)(=O)N2CCCCC2)ccc1Cl` showed a kinetic solubility of 65.8 µg/mL (≈ 140 µM). This solubility kinetic lies about 2.2-fold higher than the previous one.
On to `Cc1ccc(-c2cc(N)nc(-c3ccccc3)c2)cc1`, for which the kinetic solubility is under 0.3 µg/mL.
The molecule `COc1ccc(C=O)c2[nH]c3c(Cl)ncnc3c12` gave a solubility (kinetic) of 3.4 µg/mL (≈ 13 µM).
Next, `CN1CCN(CCC(=O)Nc2ccc(Br)cc2)CC1`: 48.5 µg/mL (≈ 149 µM); `Cc1cccc(NC(=O)OC2CN3CCC2CC3)c1` (stereo not drawn): over 39.1 µg/mL.
Next, `Cc1cc(/C=C2\SC(=S)N(C)C2=O)c(C)n1-c1cccc(O)c1`: 0.4 µg/mL (≈ 1.16 µM); `Cc1ccc(C(=O)Nc2ccccc2Cl)cc1`: 21 µg/mL (≈ 85.5 µM); `CCOc1ccc(C(=O)NCc2ccc3c(c2)OCO3)cc1`: 11.3 µg/mL (≈ 37.8 µM).
`COc1ccc(-c2cc(C(=O)NCc3ccco3)c3ccccc3n2)c(OC)c1` gave a solubility (kinetic) of 8.3 µg/mL (≈ 21.4 µM). This solubility kinetic and that of the molecule before are within 1.5-fold of each other.
Next, `CCOC(=O)c1cnc(-c2ccccc2)nc1C(F)(F)F`: under 0.3 µg/mL; `Cc1ccc(NC(=O)C(=O)Nc2ccc(C)cn2)nc1`: 1.8 µg/mL (≈ 6.66 µM).
Next, `O=[N+]([O-])c1ccc(P(=O)(Cc2ccccc2)c2ccccc2O)cc1` (stereo not drawn): 17 µg/mL (≈ 48.1 µM).
To `COc1ccc(NC(=O)C2COc3ccccc3O2)cc1` (stereo not drawn) belongs over 42.8 µg/mL; to `Cc1cc2cc(CNC(=S)NCc3ccccc3)ccc2n1C`, 1.8 µg/mL (≈ 5.56 µM).
`O=C(NCc1cccs1)c1cccn2c(=O)c3sccc3nc12`: the solubility (kinetic) turned out to be 0.6 µg/mL (≈ 1.76 µM).
`O=C(Nc1ccc(F)cc1F)c1cc2ccccc2oc1=O` came in with a solubility (kinetic) of under 0.6 µg/mL.
In turn, `O=C(COC(=O)C1CCCC1)Nc1ncc(Cl)cc1Cl` gave a solubility (kinetic) of over 47.6 µg/mL.
`CCOC(=O)c1c(O)c2ccccc2n(CC)c1=O`: the kinetic solubility is over 39.2 µg/mL.
To `O=C1N=C(N2CCOCC2)S/C1=C\c1ccncc1` belongs over 41.3 µg/mL; to `CCCCOC(=O)C1=C(C)NC(=O)NC1c1ccc(N(C)C)cc1` (stereo not drawn), 1.7 µg/mL (≈ 5.13 µM).
To `Cc1cc(=O)[nH]c2c(C)cc(S(=O)(=O)N3CCCCC3)cc12` belongs 2.6 µg/mL (≈ 8.11 µM).
To `COc1ccc(C(=O)OCC(=O)N2C(C)CCCC2C)cc1S(=O)(=O)N1CCOCC1` (stereo not drawn) belongs over 68.2 µg/mL; to `COc1cccc(/C=C/C(=O)NCc2ccc(S(N)(=O)=O)cc2)c1`, 12.7 µg/mL (≈ 36.7 µM); to `N#CC1(NC(=O)COc2ccc(C(N)=O)cc2)CCCC1`, over 43.1 µg/mL.
Molecule `O=C(c1ccc(F)cc1)c1ccc(N2CCCCC2)cc1` had a solubility (kinetic) of 3.6 µg/mL (≈ 12.7 µM).
Next, `Cc1cc(NC(=O)c2ccc(Cl)cc2Cl)no1`: 3.5 µg/mL (≈ 12.9 µM).
Next, `CC(C)NCC(O)c1ccc(O)c(O)c1.Cl` (stereo not drawn): over 37.2 µg/mL.
